Patent US20260070927A1, “INDAZOLE MACROCYCLES FOR THE TREATMENT OF AUTOIMMUNE DISEASE” (Hoffmann-La Roche Inc., priority 2022, published 2026)

Assays:
[1] = target: human stimulator of interferon genes (STING) (139-379) (Homo sapiens (Human), UniProt Q86WV6); assay: Microliter plate-based TR-FRET competition-binding assay for binders of STING; conditions: Alexa488 probe, read-out: FRET_IC50
Method in brief: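 E. coli-expressed C-terminal flag-tagged STING (139-379) at 2.5 nM with 2.5 nM Tb-anti-Flag and 250 nM Alexa488-labelled active-site probe, 30 min at room temperature. TR-FRET 520/485 nm ratio after 320 nm excitation. Percent inhibition calculated relative to the 2′3′cGAMP positive control.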

[2] = microsomes
Experimental: The liver microsomal stability assay is used for early assessment of metabolic stability of a test compound in liver microsomes.
Liver microsomes were preincubated with test compound for 10 minutes at 37° C. in 100 mM potassium phosphate buffer, pH 7.4. The reactions were initiated by adding NADPH regenerating system. The final incubation mixtures contained 1 μM test compound, 0.5 mg/mL liver microsomal protein, 1 mM MgCl2, 1 mM NADP, 1 unit/mL isocitric dehydrogenase and 6 mM isocitric acid in 100 mM potassium phosphate buffer, pH 7.4. After incubation times of 0, 3, 6, 9, 15 and 30 minutes at 37° C., 300 μL of cold acetonitrile (including internal standard) was added to 100 μL incubation mixture to terminate the reaction. Following precipitation and centrifugation, the amount of compound remaining in the samples were determined by LC-MS/MS. Controls of no NADPH regenerating system at zero and 30 minutes were also prepared and analyzed.

Sequence of human stimulator of interferon genes (STING) (139-379) (Q86WV6 139-379): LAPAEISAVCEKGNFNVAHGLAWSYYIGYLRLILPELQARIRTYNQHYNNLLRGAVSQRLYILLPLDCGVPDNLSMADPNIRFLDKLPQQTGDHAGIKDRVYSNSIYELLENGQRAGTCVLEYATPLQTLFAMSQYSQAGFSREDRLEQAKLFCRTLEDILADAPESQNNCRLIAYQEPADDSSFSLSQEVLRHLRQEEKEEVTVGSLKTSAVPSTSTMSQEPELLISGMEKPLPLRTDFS

## COc1cc(F)ccc1-n1ncc2c(N3C[C@@H]4C[C@H]3C(=O)N(CCCN3CCOCC3)CCCc3c5c(cccc5nn3C)-c3ccnc(n3)N4)ncnc21 [Example 47, (8S,11S)-10-[1-(4-fluoro-2-methoxy-phenyl)pyrazolo[3,4-d]pyrimidin-4-yl]-18-methyl-13-(3-morpholinopropyl)-5,7,10,13,18,19,26-heptazapentacyclo[15.6.1.1^2,6.1^8,11.0^20,24]hexacosa-1(23),2(26),3,5,17(24),19,21-heptaen-12-one]
[1]
  IC50: 7.2 nM
[2]
  Clearance of human microsome: 6.1 mL/min/kg
